Results on eight molecules are retold here after ChEMBL document CHEMBL3124752, “Small molecule disruptors of the glucokinase-glucokinase regulatory protein interaction: 1. Discovery of a novel tool compound for in vivo proof-of-concept” (J Med Chem, 2014).

As usually defined, the fraction unbound is free concentration divided by total concentration. Usually bioavailability stands for dose-corrected exposure relative to a reference, in per cent. Lower therefore signals poor availability. By Cmax is commonly meant the maximum level reached in the sampled fluid or tissue. Broadly, the EC50 is the midpoint of the concentration-response curve. In general, clearance refers to the rate of elimination divided by the concentration.

The species named for data set [1] is Rattus norvegicus. The experiment in a line: Toxicity in Zucker diabetic fatty rat assessed as change in plasma triglyceride level. Format: organism-based. The settings on record: in vivo.
Data set [2] is filed under the species Rattus norvegicus. Description: Toxicity in Zucker diabetic fatty rat assessed as change in plasma insulin level. Type of data set: organism-based. The note with it: in vivo.
Data set [3] deals with Rattus norvegicus. The experiment in a line: Toxicity in Wistar rat assessed as induction of hypoglycemia at 100 mg/kg, po. Format: organism-based. More on the design: dose 100 mg/kg, route oral. The settings on record: in vivo.
Data set [4] deals with Rattus norvegicus. Description: fCmax in Wistar rat at 100 mg/kg, po. Format: ADME, organism-based. More on the design: dose 100 mg/kg, route oral. The settings on record: in vivo.
The species named for data set [5] is Rattus norvegicus. The experiment in a line: fCmax in Sprague-Dawley rat. Type of data set: ADME, organism-based. The note with it: in vivo.
Data set [6] is described as follows: Fraction unbound in Sprague-Dawley rat plasma at 2 mg/kg, iv and 10 mg/kg, po. Format: ADME, organism-based. The note with it: other: intravenous and oral.
Data set [7] can be described thus: Oral bioavailability in Sprague-Dawley rat at 10 mg/kg. Format: ADME, organism-based. The note with it: in vivo.
A short description of data set [8]: Cmax in Sprague-Dawley rat at 10 mg/kg, po. Format: ADME, organism-based. More on the design: dose 10 mg/kg, route oral. The settings on record: in vivo.
A short description of data set [9]: Intrinsic clearance in Sprague-Dawley rat liver microsomes at 1 uM after 30 mins in presence of NADPH. Type of data set: ADME. The settings on record: read-out: CLH. A general note: Liver microsomes are a subcellular fraction often used to study metabolism.
Data set [10] addresses T1, Hexokinase-4 (Homo sapiens, UniProt P35557).
T1 sequence (P35557 whole entry): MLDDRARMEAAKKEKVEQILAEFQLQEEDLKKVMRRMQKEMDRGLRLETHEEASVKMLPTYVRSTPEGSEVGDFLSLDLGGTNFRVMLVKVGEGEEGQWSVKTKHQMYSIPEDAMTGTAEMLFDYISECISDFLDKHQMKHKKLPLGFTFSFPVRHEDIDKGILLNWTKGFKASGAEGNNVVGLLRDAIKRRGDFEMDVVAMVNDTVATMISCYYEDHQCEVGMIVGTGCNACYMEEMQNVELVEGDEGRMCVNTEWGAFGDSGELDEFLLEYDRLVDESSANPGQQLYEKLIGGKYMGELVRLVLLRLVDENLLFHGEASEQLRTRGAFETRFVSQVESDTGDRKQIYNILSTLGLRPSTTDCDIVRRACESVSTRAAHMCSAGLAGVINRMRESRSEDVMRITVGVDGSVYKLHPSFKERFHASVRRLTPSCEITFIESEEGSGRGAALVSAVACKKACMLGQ
Description: Activation of human glucokinase.

Data set [11] concerns the target T2, Glucokinase regulatory protein (Rattus norvegicus, UniProt Q07071).
T2 sequence (Q07071 whole entry): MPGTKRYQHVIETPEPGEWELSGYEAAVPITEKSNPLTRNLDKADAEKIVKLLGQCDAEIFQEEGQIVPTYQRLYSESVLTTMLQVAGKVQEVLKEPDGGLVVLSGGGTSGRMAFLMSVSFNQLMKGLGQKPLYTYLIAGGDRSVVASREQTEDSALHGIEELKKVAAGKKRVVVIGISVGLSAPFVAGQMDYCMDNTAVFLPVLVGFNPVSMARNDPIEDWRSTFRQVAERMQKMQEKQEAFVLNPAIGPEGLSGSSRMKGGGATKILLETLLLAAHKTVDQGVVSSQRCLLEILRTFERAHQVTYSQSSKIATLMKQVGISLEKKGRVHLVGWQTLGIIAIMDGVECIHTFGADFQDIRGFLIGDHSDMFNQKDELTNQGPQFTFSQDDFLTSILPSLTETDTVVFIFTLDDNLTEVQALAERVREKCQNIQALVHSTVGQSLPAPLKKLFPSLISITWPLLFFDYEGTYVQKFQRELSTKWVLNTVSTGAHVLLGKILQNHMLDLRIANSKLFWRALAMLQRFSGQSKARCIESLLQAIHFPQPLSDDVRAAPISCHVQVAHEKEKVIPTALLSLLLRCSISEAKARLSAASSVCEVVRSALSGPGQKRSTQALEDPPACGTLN
The experiment in a line: Inhibition of GKRP-GK interaction in rat primary hepatocytes assessed as translocation of GK from nucleus to cytoplasm preincubated for 20 mins followed by glucose addition measured after 40 mins by fluorescence assay. Type of data set: cell-based, Hepatocyte.

Data set [12] in a line: Volume of distribution at steady state in Sprague-Dawley rat at 2 mg/kg, iv. The settings on record: in vivo, read-out: Vdss. Type of data set: ADME, organism-based. More on the design: dose 2 mg/kg, route intravenous.
Data set [13] in a line: Clearance in Sprague-Dawley rat at 2 mg/kg, iv. Also noted: dose 2 mg/kg, route intravenous. The note with it: in vivo. Format: ADME, organism-based.

Turning to `C[C@H]1COCCN1C[C@H]1CN(S(=O)(=O)c2cccs2)CCN1c1ccc([C@@](C)(O)C(F)(F)F)cc1`, the results for the Activity entry in data set [1], in data set [2] and in data set [3] were “Non-toxic”, “Non-toxic” and “Toxic”, respectively. The fCmax in [4] turned out to be 0.056 µM; in [5], 0.004 µM. Further, in data set [6], the fraction unbound amounted to 0.037. In data set [7], this molecule returned a bioavailability of 7.86%. This molecule gave a Cmax in data set [8] of 110 nM. Moreover, the microsomal CLint at 1 µM in [9] worked out at 608 µL/min/mg. Moreover, the EC50 was greater than 50 µM in data set [10] and 0.082 µM in data set [11].

`O=S(=O)(c1cccs1)N1CCN(c2ccc(C(O)(C(F)(F)F)C(F)(F)F)cc2)CC1` returned a fraction unbound in data set [6] of 0.0062. Moreover, in data set [7], the bioavailability turned out to be 28%. This molecule returned a Cmax in data set [8] of 350 nM. Further, in data set [12], the Vd was 6.81 L/kg. The molecule further showed a clearance in data set [13] of 44 mL/min/kg. The EC50 in data set [10] is greater than 50 µM.

On to `O=S(=O)(c1cccs1)N1CCN(c2ccc(C(O)(C(F)(F)F)C(F)(F)F)cc2)[C@@H](CC2CCOCC2)C1`, for which, in data set [11], the EC50 worked out at 5.47 µM.

Consider `O=S(=O)(c1cccs1)N1CCN(c2ccc(C(O)(C(F)(F)F)C(F)(F)F)cc2)[C@@H](CN2CCOCC2)C1`, for which the EC50 in data set [11] amounted to 3.99 µM.

On to `C[C@H]1COCCN1C[C@H]1CN(S(=O)(=O)c2cccs2)CCN1c1ccc(C(O)(C(F)(F)F)C(F)(F)F)cc1`, for which the EC50 in [11] amounted to 1.81 µM.

Take `C[C@@](O)(c1ccc(N2CCN(S(=O)(=O)c3cccs3)C[C@@H]2CC2CCOCC2)cc1)C(F)(F)F`: the EC50 in [11] came to 0.89 µM.

`C[C@](O)(c1ccc(N2CCN(S(=O)(=O)c3cccs3)C[C@@H]2CC2CCOCC2)cc1)C(F)(F)F`: the EC50 in data set [11] worked out at 4.76 µM.

`C[C@H]1COCCN1C[C@H]1CN(S(=O)(=O)c2cccs2)CCN1c1ccc([C@](C)(O)C(F)(F)F)cc1`: the EC50 in data set [11] came to 0.22 µM.
